Converted amounts (≈) assume the structure as drawn.
Experiments:
Escherichia coli = test: In vitro inhibition of procaryotic translation using Escherichia coli S30 Extract system for Circular DNA.; type: functional
Staphylococcus aureus = test: Minimum inhibitory concentration against Staphylococcus aureus in vitro.; type: functional
[1] = In vitro selectivity ratio of procaryotic translation to eukaryotic translation; type: functional
[2] = In vitro inhibition of eucaryotic translation using […].; type: functional
Mus musculus = test: In vivo inhibitory activity against Staphylococcus aureus 133 after iv dose using murine sepsis model; type: functional
J774 = test: Cytotoxicity against macrophage cell line (J774); type: functional, cell-based; conditions: Mus musculus

Structure (SMILES)	IC50 (Escherichia coli)	MIC (Staphylococcus aureus)	Selectivity ratio [1]	IC50 [2]	ED100 (Mus musculus)	EC50 (J774)
CN(C(=O)C[C@@H](N)CCC(N)=O)C1CN=C(NC(N)=O)NC1=O.Cl (some centres not stated)	64000 nM	12.5 µg/mL	–	–	–	–
Br.Br.CN(C(=O)C[C@@H](N)CCCNC1=NCCN1)C1CN=C(NC(N)=O)NC1=O (some centres not stated)	9400 nM	12.5 µg/mL	1	9400 nM	–	–
CN(C(=O)C[C@@H](N)CC(=O)CCN)C1CN=C(NC(N)=O)NC1=O.Cl.Cl (some centres not stated)	3000 nM	3.2 µg/mL	–	–	–	–
CN(C(=O)C[C@@H](N)CCCN)C1CN=C(NC(N)=O)NC1=O.Cl.Cl (some centres not stated)	2000 nM	0.4 µg/mL	1.9	3700 nM	0.2 mg/kg	25000 nM
CN(C(=O)CC(N)CC1CNCCO1)C1CN=C(NC(N)=O)NC1=O.Cl.Cl (configuration not stated)	1500 nM	6.3 µg/mL	–	–	–	–
CCNCCC[C@H](N)CC(=O)N(C)C1CN=C(NC(N)=O)NC1=O.Cl.Cl (some centres not stated)	4000 nM	0.8 µg/mL	1.9	7600 nM	–	–
CN(C(=O)CC(N)CCCO)C1CN=C(NC(N)=O)NC1=O.Cl (configuration not stated)	> 64000 nM	100 µg/mL	–	–	–	–
CN(C(=O)C[C@@H](N)CCN=C(N)N)C1CN=C(NC(N)=O)NC1=O.Cl.Cl (some centres not stated)	1200 nM	25 µg/mL	1	1200 nM	–	–
COC(=O)NCCC[C@H](N)CC(=O)N(C)C1CN=C(NC(N)=O)NC1=O (some centres not stated)	> 64000 nM	100 µg/mL (≈ 269 µM)	–	–	–	–
CN(C(=O)C[C@H](N)CCCN)C1CN=C(NC(N)=O)NC1=O.Cl.Cl (some centres not stated)	6000 nM	6.3 µg/mL	1.6	9400 nM	–	–
CN(C(=O)C[C@@H](N)CCC/N=C(/N)S)C1CN=C(NC(N)=O)NC1=O.Cl (some centres not stated)	200 nM	0.4 µg/mL	1	200 nM	–	–
CN(C(=O)C[C@@H](N)CCCCN)C1CN=C(NC(N)=O)NC1=O.Cl.Cl (some centres not stated)	–	0.05 µg/mL	5.3	2800 nM	0.25 mg/kg	6000 nM
CC(N)CCC(N)CC(=O)N(C)C1CN=C(NC(N)=O)NC1=O.Cl.Cl (configuration not stated)	1000 nM	0.4 µg/mL	1.2	1200 nM	–	–
CN(C(=O)C[C@@H](N)CC[C@H](N)CO)C1CN=C(NC(N)=O)NC1=O.Cl.Cl (some centres not stated)	2400 nM	3.2 µg/mL	1	2400 nM	–	–
CN(C(=O)C[C@@H](N)CC(O)CCN)C1CN=C(NC(N)=O)NC1=O.Cl.Cl (some centres not stated)	3000 nM	0.4 µg/mL	–	3200 nM	–	–
CN(C(=O)C[C@@H](N)CCCN=C(N)N)C1CN=C(NC(N)=O)NC1=O.Cl.Cl (some centres not stated)	–	0.1 µg/mL	0.57	170 nM	0.25 mg/kg	250 nM
CN(C(=O)C[C@@H](N)CCCC#N)C1CN=C(NC(N)=O)NC1=O.Cl (some centres not stated)	25000 nM	50 µg/mL	1	25000 nM	–	–
CN(C(=O)CC(N)c1cccc(NC(=N)N)c1)C1CN=C(NC(N)=O)NC1=O.Cl.Cl (configuration not stated)	500 nM	50 µg/mL	0.52	260 nM	–	–
C/C(N)=N/CCC[C@H](N)CC(=O)N(C)C1CN=C(NC(N)=O)NC1=O.Cl.Cl (some centres not stated)	–	0.4 µg/mL	0.17	600 nM	–	–
CN(C(=O)C[C@@H](N)CCCCN=C(N)N)C1CN=C(NC(N)=O)NC1=O.Cl.Cl (some centres not stated)	300 nM	0.2 µg/mL	5.3	1600 nM	–	–
C/N=C(/N)NCCC[C@H](N)CC(=O)N(C)C1CN=C(NC(N)=O)NC1=O.Cl.Cl (some centres not stated)	–	0.8 µg/mL	9.1	4500 nM	2 mg/kg	5500 nM

Source: ChEMBL document CHEMBL1136265, “Dihydropyrimidinones--a new class of anti-staphylococcal antibiotics” (Bioorg Med Chem Lett, 2003)
